The record followed here is patent US20250154163A1, “Pyrimidinone-Containing 17-Beta-Hydroxysteroid Dehydrogenase Type 13 Inhibitors” (ENANTA PHARMACEUTICALS, INC., priority 2023, published 2025).

Assay [1] has as its target T1, Recombinant human 17β-HSD13 (Homo sapiens, UniProt Q7Z5P4).
T1 construct: host or cells: Sf9 insect cells
T1 sequence (Q7Z5P4 20-300): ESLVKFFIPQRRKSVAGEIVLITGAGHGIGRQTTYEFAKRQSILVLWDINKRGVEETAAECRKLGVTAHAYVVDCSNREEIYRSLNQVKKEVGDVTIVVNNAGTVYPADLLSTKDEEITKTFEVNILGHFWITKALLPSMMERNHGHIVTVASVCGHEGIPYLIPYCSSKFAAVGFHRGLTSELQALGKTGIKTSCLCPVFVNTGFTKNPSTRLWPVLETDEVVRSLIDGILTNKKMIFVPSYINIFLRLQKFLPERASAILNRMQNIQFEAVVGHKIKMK
Put plainly: 17β-HSD13 rapid-fire mass spectrometry assay (RF/MS assay). The settings on record: inhibition of 17β-HSD13, RF/MS assay; HSD17B13 80 nM, LTB4 10 μM, NAD+ 0.5 mM, RT 3 h. The format is biochemical. The text has this:
17(3-HSD13 rapid-fire mass spectrometry assay (RF/MS assay). Recombinant human 17β-HSD13 was expressed and purified from sf9 cells at Charles River Labs (Saffron Walden, UK). Leukotriene B4 (Catalog #71160-24-2) and 12-oxoleukotriene B4 (Catalog #20140) were purchased from Cayman Chemicals (Ann Arbor, MI). NAD+ (Catalog #N8285), BSA (Catalog #A7030), DMSO (Catalog #D2650), and Tween-20 (Catalog #11332465001) were purchased from Sigma (St. Louis, MO). Formic acid (Catalog #28905) was from ThermoFisher Scientific and 384 deep well PP microplates (Catalog #784261) were from Greiner Bio-One. In a typical IC50 assay performed in a 384w PP microplate, test compounds (0-100 μM) were incubated with HSD17B13 (80 nM), LTB4 (10 μM), and NAD^+ (0.5 mM) in 10 μL assay buffer (20 mM Tris (pH 7.5), BSA (0.005%), and Tween-20 (0.01%)) at RT for 3 h. The assays were quenched by adding 20 μL of 0.15% aqueous formic acid and the plates were frozen at −80° C. RF/MS analysis was performed at PureHoney Technologies (Billerica, MA) on a RapidFire RF300 system (Agilent Technologies, Inc.) coupled to an API 4000 triple quadrupole mass spectrometer (Sciex) equipped with Agilent RapidFire cartridge type A (C4). The mobile phase was 0.09% formic acid and 0.01% trifluoracetic acid in water (Buffer A) and 0.09% formic acid and 0.01% trifluoracetic acid in 80% aqueous acetonitrile (Buffer B). The RapidFire method conditions were the following: 250 ms aspirate, 3000 ms load/desalt, 4000 ms elute, and 500 ms re-equilibrate. RF-MS/MS was performed in negative polarity (−4500 V), the source temperature was 650° C., and gas 1 and gas 2 settings for nitrogen were set to 50. The curtain gas and collision gas were also nitrogen and were set to 20 and 12, respectively. Leukotriene B4 (335.3) and 12-oxoLeukotriene B4 (333.3) SRM transitions were optimized with Discovery Quant software and extracted ion counts for these analytes were determined.
Data Analysis. 17β-HSD13 enzyme activity was measured as percent conversion of extracted ion counts and normalized to high and low controls to determine percent residual activity at various concentrations of test compounds. Data was fitted to normalized activity (variable slope) versus concentration fit in GraphPad Prism 7 to determine IC50. All experiments were run in duplicates.
By using the above method, the inhibition of 17β-HSD13 was evaluated for the compounds of Formula (I). IC50 ranges are as follows: A is <0.1 μM; B is 0.1 μM-1.0 μM; C is 1.0 μM-10 μm; and D is >10 μM.

For assay [2], the target named is T2, human HSD17β13 (stable HEK293T cell line overexpressing human HSD17β13) (Homo sapiens, UniProt Q7Z5P4).
T2 construct: expressed in transfected cells
T2 sequence (Q7Z5P4 20-300): T1 sequence (Q7Z5P4 20-300)
As to the kind of experiment: HSD17β13 inhibitor cell-based screening assay (conversion of estradiol-d2 to estrone-d2 by RF-MS). As to conditions: conversion of estradiol-d2 to estrone-d2 after 24 hours. The essentials:
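Cellular IC50 is based on 24-h conversion of estradiol-d2 (5 μM final) to estrone-d2, measured by RF-MS in acetonitrile-precipitated supernatants. Assay uses human HSD17β13-overexpressing HEK293T cells (7.5E3/well, 1% charcoal/dextran FBS MEM), with compounds dosed as a 9-point 1:3 series to 10 μM final. ATPlite luminescence on overexpressing and parent lines measured viability.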

Molecules are shown by their SMILES. Some results are limits rather than exact numbers.

As for `O=c1c2c(nc(-c3c(C4CC4)cc(F)c(F)c3F)n1Cc1cnco1)sc1c(O)c(Cl)ccc12` [Example 147], the 50% inhibitory concentration (IC50) in assay [1] and in assay [2] was under 0.1 µM each time. As to `O=c1c2c(nc(-c3cc(C(F)(F)F)c(Cl)cc3C3CC3)n1Cc1cnco1)sc1c(O)c(Cl)ccc12` [Example 79], the IC50 in assay [1] and in assay [2] was under 0.1 µM throughout. As to `COc1ccc(-c2nc3sc4c(C(=O)O)cccc4c3c(=O)n2Cc2cnco2)c(C2CC2)c1` [Example 2, 2-(2-cyclopropyl-4-methoxyphenyl)-3-(oxazol-5-ylmethyl)-4-oxo-3,4-dihydrobenzo[4,5]thieno[2,3-d]pyrimidine-8-carboxylic acid], the values for the IC50 in assay [1] and in assay [2] were 0.1 to 1 µM and 1 to 100 µM, respectively. On the same counts, the results for `COc1ccc(-c2nc3sc4c(O)c(Cl)ccc4c3c(=O)n2Cc2cnc(Cl)s2)c(C2CC2)c1` [Example 191] are under 0.1 µM and under 0.1 µM. For `CC(C)(C)c1ccc(-c2nc3sc4c(O)c(Cl)ccc4c3c(=O)n2Cc2cnco2)c(C2CC2)c1` [Example 75, 2-(4-(tert-butyl)-2-cyclopropylphenyl)-7-chloro-8-hydroxy-3-(oxazol-5-ylmethyl)benzo[4,5]thieno[2,3-d]pyrimidin-4(3H)-one] the same measures were under 0.1 µM and under 0.1 µM. With `CCCc1ccc2c(sc3nc(-c4ccc(OC)cc4C4CC4)n(Cc4cnco4)c(=O)c32)c1O` [Example 22, 2-(2-cyclopropyl-4-methoxyphenyl)-8-hydroxy-3-(oxazol-5-ylmethyl)-7-propylbenzo[4,5]thieno[2,3-d]pyrimidin-4(3H)-one], the IC50 in assay [1] fell in the range of 1 to 10 µM; in assay [2] it was 1 to 100 µM.

As for `COc1ccc(-c2nc3sc4c(O)c(Cl)ccc4c3c(=O)n2Cc2cn(C(F)(F)F)nn2)c(C2CC2)c1` [Example 130], the IC50 in assay [1] and in assay [2] was under 0.1 µM in each case. On to `COc1ccc(-c2nc3sc4c(N(C(C)=O)C(C)=O)cccc4c3c(=O)n2Cc2cnco2)c(C2CC2)c1` [Example 5, N-acetyl-N-(2-(2-cyclopropyl-4-methoxyphenyl)-3-(oxazol-5-ylmethyl)-4-oxo-3,4-dihydrobenzo[4,5]thieno[2,3-d]pyrimidin-8-yl)acetamide], for which the results for the IC50 in assay [1] and in assay [2] were over 10 µM and 1 to 100 µM, respectively. On the same counts, the results for `O=c1c2c(nc(-c3ncc(F)cc3C3CC3)n1Cc1cc(C(F)(F)F)no1)sc1c(O)c(Cl)ccc12` [Example 97] are under 0.1 µM and under 0.1 µM. Regarding `COc1cc(C2CC2)c(-c2nc3sc4c(O)c(Cl)ccc4c3c(=O)n2Cc2cnco2)cc1F` [Example 76, 7-chloro-2-(2-cyclopropyl-5-fluoro-4-methoxyphenyl)-8-hydroxy-3-(oxazol-5-ylmethyl)benzo[4,5]thieno[2,3-d]pyrimidin-4(3H)-one], the half-maximal inhibitory concentration (IC50) in assay [1] and in assay [2] was under 0.1 µM in each case. In the case of `O=c1c2c(nc(-c3cc(F)c(C(F)(F)F)cc3C3CC3)n1Cc1cnco1)sc1c(O)c(Cl)ccc12` [Example 133], the IC50 in assay [1] and in assay [2] was under 0.1 µM in each case.

Turning to `COc1ccc(-c2nc3sc4c(-c5ncco5)cccc4c3c(=O)n2Cc2cnco2)c(C2CC2)c1` [Example 9, 2-(2-cyclopropyl-4-methoxyphenyl)-8-(oxazol-2-yl)-3-(oxazol-5-ylmethyl)benzo[4,5]thieno[2,3-d]pyrimidin-4(3H)-one], the IC50 in assay [1] is over 10 µM; in assay [2] it was 1 to 100 µM. Consider `O=c1c2c(nc(-c3ccc(OC(F)(F)F)cc3C3CC3)n1Cc1cnco1)sc1c(O)c(Cl)ccc12` [Example 131], for which the IC50 in assay [1] and in assay [2] was under 0.1 µM each time. Take `Cn1cc(Cn2c(-c3cc(F)c(F)cc3C3CC3)nc3sc4c(O)c(Cl)ccc4c3c2=O)ccc1=O` [Example 174]: the IC50 in assay [1] and in assay [2] was under 0.1 µM throughout. With `O=c1c2c(nc(-c3ccc(C(F)F)cc3C3CC3)n1Cc1cc(C(F)(F)F)no1)sc1c(O)c(Cl)ccc12` [Example 171], the IC50 in assay [1] and in assay [2] was under 0.1 µM in each case. On to `COc1ccc(-c2nc3sc4c(F)cccc4c3c(=O)n2Cc2cnco2)c(C2CC2)c1` [Example 13, 2-(2-cyclopropyl-4-methoxyphenyl)-8-fluoro-3-(oxazol-5-ylmethyl)benzo[4,5]thieno[2,3-d]pyrimidin-4(3H)-one], for which the results for the IC50 in assay [1] and in assay [2] were over 10 µM and 1 to 100 µM, respectively.

For the compound `COc1ccc(-c2nc3sc4c(O)c(Cl)ccc4c3c(=O)n2Cc2cc(C(F)(F)F)no2)c(C2CC2)c1` [Example 48, 7-chloro-2-(2-cyclopropyl-4-methoxyphenyl)-8-hydroxy-3-((3-(trifluoromethyl)isoxazol-5-yl)methyl)benzo[4,5]thieno[2,3-d]pyrimidin-4(3H)-one], the concentration for half-maximal inhibition (IC50) in assay [1] and in assay [2] was under 0.1 µM throughout. `COc1cc(C2CC2)c(-c2nc3sc4c(O)c(Cl)cc(Cl)c4c3c(=O)n2Cc2cnco2)cc1Cl` [Example 19, 5,7-dichloro-2-(5-chloro-2-cyclopropyl-4-methoxyphenyl)-8-hydroxy-3-(oxazol-5-ylmethyl)benzo[4,5]thieno[2,3-d]pyrimidin-4(3H)-one]: the IC50 in assay [1] was 0.1 to 1 µM; in assay [2], 0.1 to 0.5 µM. For `O=c1ccc(Cn2c(-c3cc(F)c(F)cc3C3CC3)nc3sc4c(O)c(Cl)ccc4c3c2=O)c[nH]1` [Example 169] the same measures were under 0.1 µM and under 0.1 µM.

Turning to `COc1ccc(-c2nc3sc4c(C=O)cccc4c3c(=O)n2Cc2cnco2)c(C2CC2)c1` [Example 15, 2-(2-cyclopropyl-4-methoxyphenyl)-3-(oxazol-5-ylmethyl)-4-oxo-3,4-dihydrobenzo[4,5]thieno[2,3-d]pyrimidine-8-carbaldehyde], the figures for the IC50 in assay [1] and in assay [2] were over 10 µM and 1 to 100 µM, respectively. For `COc1ccc(-c2nc3sc4c(C(N)=O)cccc4c3c(=O)n2Cc2cnco2)c(C2CC2)c1` [Example 3, 2-(2-cyclopropyl-4-methoxyphenyl)-3-(oxazol-5-ylmethyl)-4-oxo-3,4-dihydrobenzo[4,5]thieno[2,3-d]pyrimidine-8-carboxamide] the same measures were 1 to 10 µM and 1 to 100 µM. `COc1ccc(-c2nc3sc4c(O)c(Cl)ccc4c3c(=O)n2CC(=O)O)c(C2CC2)c1` [Example 46, 2-(7-chloro-2-(2-cyclopropyl-4-methoxyphenyl)-8-hydroxy-4-oxobenzo[4,5]thieno[2,3-d]pyrimidin-3(4H)-yl)acetic acid] showed an IC50 in assay [2] of 1 to 100 µM. On the same count and under the same terms, to `O=c1c2c(nc(-c3cc(F)c(C(F)F)cc3C3CC3)n1Cc1cnco1)sc1c(O)c(Cl)ccc12` [Example 141] belongs under 0.1 µM; to `O=c1c2c(nc(-c3cc(F)c(F)cc3C3CC3)n1Cc1nn[nH]n1)sc1c(O)c(Cl)ccc12` [Example 213], 1 to 100 µM.

Regarding `O=c1c2c(nc(-c3c(C4CC4)ccc(C(F)(F)F)c3F)n1Cc1cnco1)sc1c(O)c(Cl)ccc12` [Example 134], in assay [2], the IC50 is under 0.1 µM. Turning to `O=c1c2c(nc(-c3ccc(C(F)F)cc3C3CC3)n1Cc1cnco1)sc1c(O)c(Cl)ccc12` [Example 159], the IC50 in assay [2] was under 0.1 µM.

As for `CS(=O)(=O)c1ccc(-c2nc3sc4c(O)c(Cl)ccc4c3c(=O)n2Cc2ccc(C(F)(F)F)nc2)c(C2CC2)c1` [Example 69, 7-chloro-2-(2-cyclopropyl-4-(methylsulfonyl)phenyl)-8-hydroxy-3-((6-(trifluoromethyl)pyridin-3-yl)methyl)benzo[4,5]thieno[2,3-d]pyrimidin-4(3H)-one], the half-inhibitory concentration (IC50) in assay [2] is under 0.1 µM.

Broadly, the IC50 is the midpoint of a concentration-inhibition curve.
